Laboratory results: patent US20030212034A1, “Method of treatment of obesity and paralyzed muscle and ergogenic aids” (priority 2002, published 2003)

Experiments:
Type in all cases: in vivo, rat
[1] = Food intake, body weight and organ weights after 4 weeks of daily AICAR injection
Procedure: To determine the effect of chronic injection of AICAR on muscle enyzme activities or expression and on muscle GLUT4, rats were injected subcutaneously (between 8 and 10 a.m.) with AICAR (1 mg/g) or saline vehicle daily for 28±1 days in succession. Beginning with the first injection, controls were pair fed with AICAR-injected rats. Rats were anesthetized by intraperitoneal injection of pentobarbital sodium 22-25 hours after the last AICAR injection and the white and red regions of the quadriceps and the soleus muscles were removed and frozen as described above. Muscles were kept frozen at −70° C. until analyzed. Liver, heart, kidney, and fat pads were weighed.

[2] = tested on: acetyl-CoA carboxylase (ACC); assay: Acetyl-CoA carboxylase activity at 0.2 mM citrate in muscle after s.c. AICAR injection; conditions: for ACC: at 0.2 mM citrate
Procedure: Three days prior to the experiment, jugular cathethers were installed and exteriorized on the back of the neck to allow rapid anesthesia of the rat and rapid blood and tissue collection. Rats were then injected with AICAR (1 mg/g body wt) subcutaneously in sterile 0.9% NaCl or were given 0.9% NaCl (n=6 rats per group). One hour after the subcutaneous injection, rats were anesthetized by intravenous injection of pentobarbital sodium (4.8 mg/100 g body wt). The superficial white and the deep red regions of the quadriceps muscles, and the soleus muscles were quickly removed and frozen with stainless steel clamps at liquid nitrogen temperature.
Resuspended ammonium sulfate precipitates of tissue homogenates were analyzed for AMPK activity and acetyl-CoA carboxylase activity as described previously. Li, B., et al. J. Biol. Chem. 274:17534-17540, 1999; Winder, W. W., & D. G. Hardie Am. J. Physiol. 270:E299-E304, 1996. […] ACC activity at 0.2 mM citrate provides some indication of the in vivo activity of AMPK, since ACC is a target for phosphorylation of AMPK. ACC activity has previously been reported to decrease in response to phosphorylation by AMPK. Winder, W. W., & D. G. Hardie Am. J. Physiol. 270:E299-E304, 1996. The acute experiment was also repeated on rats treated with AICAR or saline for 4 weeks to see if the responses of AMPK and ACC to AICAR persisted for the entire treatment period. In both experiments ATP and CP were measured on neutralized perchloric acid extracts of muscle.

GLUT4 = GLUT4 western blot in 3-day denervated and contralateral muscles after AICAR injections
Procedure: Rats were anesthetized with ether and the sciatic nerve of the right hindlimb was severed. The left hindlimb was sham operated to serve as a control. Both skin wounds were closed with a metal clips. The rats used for the acute study were also implanted with a jugular catheter which was exteriorized on the back of the neck at the time of denervation for rapid administration of anesthesia.
Muscle was ground to a powder under liquid nitrogen and homogenized ([…]) in HEPES buffer [25 mM HEPES, 1 mM EDTA, 1 mM benzamadine, 1 mM 4-(2-aminoethyl)-benzene+sulfonyl fluoride, 1 μM leupeptin, 1 μM antitrypsin, 1 μM aprotinin, pH 7.5]. This homogenate was then diluted with water and Laemmli's buffer (1 mL homogenate:2 mL water: 1 mL buffer) immediately before loading. 20 μL of this homogenate were then loaded onto a 10% SDS-PAGE mini gel (Tris-HCl ready gels, BioRad, Hercules, Calif.). Samples were subjected to electrophoresis at 200 V for 45 minutes. Proteins were transferred from gel to nitrocellulose membrane at 100V for 50 minutes. Membranes were blocked in 5% non-fat milk (BioRad, Hercules, Calif.) in PBST (139 mM NaCl, 2.7 mM KH2PO4, 9.9 mM Na2HPO4, and 0.05% Tween-20) and were then left overnight with GLUT4 polyclonal antibody (Biogenesis, Kingston, N.H.) in 5% dried milk solution (1:5000 dilution). After washing twice in PBST, and twice in PBS (139 mM NaCl, 2.7 mM KH2PO4, 9.9 mM Na2HPO4), the membranes were exposed to horseradish peroxidase-conjugated donkey anti-rabbit IgG (Amersham Life Sciences, Arlington Heights, Ill.) for 1 h. at room temperature. After again washing twice with PBST and twice with PBS, the membranes were incubated in enhanced chemoluminescence-detection reagent and then visualized on enhanced chemoluminescence hyperfilm (Amersham Life Sciences). Relative amounts of GLUT4 were then quantified using a Hewlett Packard Scan Jet 6200C and SigmaGel software (SPSS, Chicago, Ill.). Western blot data are expressed as arbitrary units where individual values were divided by the mean basal GLUT4 value (sham operated leg/injected with 0.9%/NaCl solution).
Rats were injected either with AICAR (1 mg in 0.9% NaCl/g body weight) or a 0.9% NaCl solution ˜0, ˜24, and ˜48 hours after denervation and were then sacrificed ˜72 hours after denervation without injection. Rats were anesthetized with sodium pentobarbital (4.8 mg/100 g. body weight), soleus and gastrocnemius muscles from both sham and denervated sides were extracted, and muscles were quick frozen in liquid nitrogen and stored for analysis.
Rats were denervated as described above between 8:00 and 10:00 and were immediately injection with either 0.9% NaCl solution (n=4), 0.1 mg AICAR in 0.9% NaCl/g body weight (n=4), 0.5 mg AICAR in 0.9% NaCl/g body weight (n=3), or 1 mg AICAR in 0.9% NaCl/g body weight (n=4). Rats of each treatment group were subsequently injected with the respective AICAR solutions at ˜24 and ˜48 hours after denervation. Rats were killed ˜72 hours after denervation without an AICAR injection and muscles were collected as described above.

[3] = AICAR 1 mg/g s.c. daily for four weeks
[4] = AICAR-injected rats, single injection, 0.2 mM citrate

## NC(=O)c1ncn([C@@H]2O[C@H](CO)[C@@H](O)[C@H]2O)c1N [AICAR, 5-aminoimidazole-4-carboxamide-1-β-D-ribofuranoside]
[1]; [3]
  Epididymal Fat Pad weight: 1.21 ± 0.10 g
  Heart weight: 0.80 ± 0.02 g
  Kidney weight: 0.99 ± 0.02 g
  Liver weight: 16.0 ± 0.50 g
  Retroperitoneal Fat Pad weight: 0.90 ± 0.08 g
[1]; AICAR 1 mg/g s.c. daily for four weeks, pair-fed controls
  Body Weight: 254 ± 5 g
[1]; AICAR for 4 weeks, FIG. 1
  food intake and body weight vs saline injected rats: No statistically significant differences
[2]; [4]
  ACC activity in white quadriceps relative to that seen in red quadriceps: 61%
  ACC activity in white quadriceps relative to that seen in soleus: 44%
[2]; red quadriceps, 60 min after AICAR injection, after daily injections for 4 wk
  ACC: 0.21 ± 0.01 nmol/g/min
[2]; red quadriceps, 60 min after single AICAR injection 1 mg/g s.c., no chronic treatment
  ACC: 0.19 ± 0.02 nmol/g/min
[2]; soleus, 60 min after AICAR injection, after daily injections for 4 wk
  ACC: 0.28 ± 0.01 nmol/g/min
[2]; soleus, 60 min after single AICAR injection 1 mg/g s.c., no chronic treatment
  ACC: 0.19 ± 0.02 nmol/g/min
[2]; white quadriceps, 60 min after AICAR injection, after daily injections for 4 wk
  ACC: 0.12 ± 0.01 nmol/g/min
[2]; white quadriceps, 60 min after single AICAR injection 1 mg/g s.c., no chronic treatment
  ACC: 0.08 ± 0.02 nmol/g/min
GLUT4; contralateral innervated gastrocnemius, AICAR 1 mg/g for 3 days
  GLUT4 content, percent intensity of saline-treated contralateral innervated controls: 130.1%
GLUT4; denervated gastrocnemius, AICAR 1 mg/g for 3 days, saline denervated 60.1%
  GLUT4 content, percent intensity of saline-treated contralateral innervated controls: 106.6%
GLUT4; denervated gastrocnemius, doses 0.1, 0.5, 1 mg/g, result for the 1 mg/g dose, FIG. 11
  dose dependent response of GLUT4 vs saline-treated denervated gastrocnemius: only dose that significantly raises GLUT4 content
GLUT4; denervated gastrocnemius, subcutaneous AICAR injections
  increase of GLUT4 vs. saline-treated denervated gastrocnemius controls: 80%
GLUT4; denervated soleus, AICAR 1 mg/g for 3 days, saline denervated 72.6%, not significant
  GLUT4 content, percent of saline-treated contralateral controls: 85.4%
GLUT4; innervated gastrocnemius, doses 0.1, 0.5, 1 mg/g, result for the 1 mg/g dose, FIG. 11
  dose dependent response of GLUT4 vs saline-treated innervated gastrocnemius: only dose that significantly raises GLUT4 content
